Data published in patent publication US10744171B2, “Sequential anti-cancer treatment” (Duke University, priority 2016, dated 2020).

System: recurrent glioblastoma (WHO grade IV)
Settings: human, in vivo

## O=NN(CCCl)C(=O)NC1CCCCC1 [lomustine]
  clinical and imaging response after one cycle: significant clinical and imaging response
  imaging and clinical response after first six weeks of therapy (one cycle), both of two patients: significant imaging and clinical improvement
  response on brain scans after chemotherapy was added to Avastin: Response
  time disease free (complete tumor disappearance) post PVSRIPO infusion: > 32 months
